# From US6929012B2, “Process for the isolation of a major harmful oxidant from cigarette smoke” (Council of Scientific and Industrial Research, priority 2001, dated 2005)
# System: cs-oxidant-induced albumin oxidation
# Assay: Protection of cs-oxidant-induced albumin oxidation by chemical agents
# Type: biochemical, bovine
# Conditions: for inhibition of BSA oxidation: concentration ranging between 500 μM and 1 mM
# Experimental: The incubation system contained 1 mg BSA and 50 μl of cs solution or its equivalent amounts obtained at different stages of purification in a final volume of 200 μl of 50 mM potassium phosphate buffer, pH 7.4. The incubation was carried out at 37° C. for 1 hour. Protein carbonyl was measured by reaction with 2,4-dinitrophenyl hydrazine (DNPH) following the method of Levine et al (Methods Enzymol. 186: 464-478, 1990) similar to that done before in our laboratory (Panda et al., Free Radic. Biol. & Med. 27: 1064-1079, 1999). […] To this washed pellet was then added 500 μl of 10 mM DNPH solution in 2M HCl and incubated at 37° C. for 1 h with occasional vortexing. Thereafter, the protein was again precipitated with 500 μl of cold 20% trichloroacetic acid solution and the pellet was first washed with 500 μl of 10% trichloroacetic acid solution followed by three successive washes with 1 ml of a mixture of ethanol: ethyl acetate (1:1, v/v). Finally, the washed precipitate was dissolved in 1 ml of 6M guanidium hydrochloride (pH 2.3) and the absorbance was measured at 390 nm using a double beam Hitachi spectrophotometer model U 3020 against a reagent blank of 2M HCl. The results were expressed as n moles of phenylhydrazones formed per milligram protein using a molar extinction coefficient of 22,000.
# The chemical compounds/agents include, besides ascorbic acid, tartaric acid, citric acid, oxalic cid, glutathione, tea extract and individual components of tea (Table. 4).
# The incubation system and carbonyl estimation are described in the text.
compound,measurement,setting,value
O=C1O[C@H]([C@@H](O)CO)C(O)=C1O [Ascorbic acid],% Protection,agent 100 μM,76%
same,% Protection,"agent 100 μM, listed as ascorbic acid",up to 76%
O=C(O)CC(O)(CC(=O)O)C(=O)O [Citric acid],% Protection,agent 500 μM,67%
same,% Protection,agent 1 mM,75%
same,inhibition of BSA oxidation,,up to 75%
Oc1cc(O)c2c(c1)O[C@H](c1cc(O)c(O)c(O)c1)[C@H](O)C2 [Epigallocatechin],% Protection,agent 140 μg,95%
same,% Protection,"agent 140 μg, listed as epigallocatechin",up to 95%
N[C@@H](CCC(=O)N[C@@H](CS)C(=O)NCC(=O)O)C(=O)O [Glutathione],% Protection,agent 1 mM,37%
same,% Protection,"agent 1 mM, listed as glutanthione",up to 37%
N[C@@H](Cc1c[nH]cn1)C(=O)O [Histidine],% Protection,agent 1 mM,67%
same,% Protection,"agent 1 mM, listed as histidine",up to 67%
NCCCC[C@H](N)C(=O)O [Lysine],% Protection,agent 1 mM,35%
same,% Protection,"agent 1 mM, listed as lysine",up to 35%
O=C(O)C(=O)O [Oxalic acid],% Protection,agent 500 μM,53%
same,% Protection,"agent 500 μM, listed as oxalic acid",up to 53%
O=C(O)CCC(=O)O [Succinic acid],% Protection,agent 1 μM (so in the source),60%
same,% Protection,agent 1 mM,60%
same,% Protection,"agent 1 mM, listed as succinic acid",up to 60%
O=C(O)C(O)C(O)C(=O)O (centres unmarked) [Tartaric acid],% Protection,agent 500 μM,67%
same,% Protection,agent 1 mM,75%
same,inhibition of BSA oxidation,,up to 75%
Catechin,% Protection,agent 750 μg,54%
same,% Protection,"agent 750 μg, listed as catechin",up to 54%
